Experimental data reported in ChEMBL document CHEMBL4840355, “Antitumor and toxicity study of mitochondria-targeted triptolide derivatives using triphenylphosphine (TPP+) as a carrier” (Bioorg Med Chem, 2021).
The source made the active and inactive calls. The rule behind the calls is not given here.

Columns and labels:
[1] = Hepatotoxicity in transgenic zebrafish Tg(1-fabp:EGFP) assessed as liver damage by measuring decrease in fluorescence intensity and area at 0.05 to 0.5 uM measured after 96 hrs; assay type: toxicity, tissue-based, Danio rerio; details: in vivo, dose 0.05-0.5 µM
NCI-H1975 = assay: Cytotoxicity against human NCI-H1975 cells assessed as inhibition of cell proliferation measured after 48 hrs by MTT assay; assay type: functional, cell-based; details: NCI-H1975, 48 h
HepG2 [2] = assay: Induction of cell cycle arrest in human HepG2 cells assessed as accumulation of cells in G0/G1 phase at 50 nM measured after 48 hrs by RNase A/PI staining based flow cytometry analysis (Rvb= 56.42+/- 0.27%); assay type: functional
HepG2 [3] = assay: Induction of mitochondrial membrane potential loss in human HepG2 cells assessed as proportion of cells with hyperpolarized mitochondria at 150 nM measured after 48 hrs by JC-1 staining based flow cytometry analysis (Rvb= 80.9%); assay type: functional
[4] = Toxicity in zebrafish AB assessed as pericardial edema at 12 uM measured at 72 hrs postfertilization; set-up: species or system Danio rerio; details: in vivo
HepG2 [5] = assay: Induction of mitochondrial membrane potential loss in human HepG2 cells assessed as proportion of cells with depolarized mitochondria at 75 nM measured after 48 hrs by JC-1 staining based flow cytometry analysis (Rvb= 9.1%); assay type: functional
[6] = Toxicity in zebrafish AB assessed as malformation rate at <12 uM measured at 72 hrs postfertilization; set-up: species or system Danio rerio; details: in vivo
HepG2 [7] = assay: Induction of apoptosis in human HepG2 cells assessed as late apoptotic cells at 75 nM measured after 48 hrs by Annexin V-FITC/PI double staining based flow cytometry analysis (Rvb= 2.89%); assay type: functional
HepG2 [8] = assay: Induction of mitochondrial membrane potential loss in human HepG2 cells assessed as proportion of cells with hyperpolarized mitochondria at 200 nM measured after 48 hrs by JC-1 staining based flow cytometry analysis (Rvb= 80.9%); assay type: functional
HepG2 [9] = assay: Induction of mitochondrial membrane potential loss in human HepG2 cells assessed as proportion of cells with depolarized mitochondria at 150 nM measured after 48 hrs by JC-1 staining based flow cytometry analysis (Rvb= 9.1%); assay type: functional
HepG2 [10] = assay: Antitumor activity against human HepG2 cells xenografted in zebra fish AB assessed as tumor growth inhibition at 1 uM measured after 48 hrs by fluorescence microscopic analysis; assay type: functional, cell-based
NCI-H1299 = assay: Cytotoxicity against human NCI-H1299 cells assessed as inhibition of cell proliferation measured after 48 hrs by MTT assay; assay type: functional, cell-based; details: NCI-H1299, 48 h
HepG2 [11] = assay: Induction of apoptosis in human HepG2 cells assessed as live cells at 150 nM measured after 48 hrs by Annexin V-FITC/PI double staining based flow cytometry analysis (Rvb= 94.8%); assay type: functional
HepG2 [12] = assay: Induction of apoptosis in human HepG2 cells assessed as necrotic cells at 50 nM measured after 48 hrs by Annexin V-FITC/PI double staining based flow cytometry analysis (Rvb= 0.13%); assay type: functional
[13] = Toxicity in zebrafish AB assessed as increase in hatching rate at 0.05 to 2 uM measured at 72 hrs postfertilization; set-up: species or system Danio rerio; details: in vivo, dose 0.05-2 µM
HepG2 [14] = assay: Induction of apoptosis in human HepG2 cells assessed as necrotic cells at 75 nM measured after 48 hrs by Annexin V-FITC/PI double staining based flow cytometry analysis (Rvb= 0.13%); assay type: functional

## CC(C)[C@]12O[C@H]1[C@@H]1O[C@]13[C@]1(O[C@H]1C[C@H]1C4=C(CC[C@@]13C)C(=O)OC4)[C@@H]2OC(=O)CCCCC[P+](c1ccccc1)(c1ccccc1)c1ccccc1.[Br-]
[1]
  Activity: Non-Toxic
NCI-H1975
  IC50: 88 nM
HepG2 [2]
  Activity: 72.22%
HepG2 [3]
  Activity: 51.1%
[4]
  Activity: Toxic
HepG2 [5]
  Activity: 35.6%
[6]
  Activity: Non-Toxic
HepG2 [7]
  Activity: 7.47%
HepG2 [8]
  Activity: 44.3%
HepG2 [9]
  Activity: 48.9%
HepG2 [10]
  Activity: Active
NCI-H1299
  IC50: 254 nM
HepG2 [11]
  Activity: 49.6%
HepG2 [12]
  Activity: 0.63%
[13]
  Activity: Non-Toxic
HepG2 [14]
  Activity: 0.17%
